The results in this text go back to US7994209B2, “3-phenoxymethylpyrrolidine compounds” (Theravance, Inc., priority 2009, dated 2011).

Molecules are shown by their SMILES. Some results are limits rather than exact numbers.

The target in test [1] is hNET (Homo sapiens, UniProt P23975). Briefly: hNET membrane radioligand binding assay (3H-nisoxetine), Assay 1.
Test [2] has as its target hSERT (Homo sapiens, UniProt P31645). Briefly: hSERT membrane radioligand binding assay (3H-citalopram), Assay 1. The note with it: SERT pKi, hSERT HEK-293 membranes, 1.0 nM 3H-citalopram; values given as lower bounds.

hNET, sequence (P23975 whole entry): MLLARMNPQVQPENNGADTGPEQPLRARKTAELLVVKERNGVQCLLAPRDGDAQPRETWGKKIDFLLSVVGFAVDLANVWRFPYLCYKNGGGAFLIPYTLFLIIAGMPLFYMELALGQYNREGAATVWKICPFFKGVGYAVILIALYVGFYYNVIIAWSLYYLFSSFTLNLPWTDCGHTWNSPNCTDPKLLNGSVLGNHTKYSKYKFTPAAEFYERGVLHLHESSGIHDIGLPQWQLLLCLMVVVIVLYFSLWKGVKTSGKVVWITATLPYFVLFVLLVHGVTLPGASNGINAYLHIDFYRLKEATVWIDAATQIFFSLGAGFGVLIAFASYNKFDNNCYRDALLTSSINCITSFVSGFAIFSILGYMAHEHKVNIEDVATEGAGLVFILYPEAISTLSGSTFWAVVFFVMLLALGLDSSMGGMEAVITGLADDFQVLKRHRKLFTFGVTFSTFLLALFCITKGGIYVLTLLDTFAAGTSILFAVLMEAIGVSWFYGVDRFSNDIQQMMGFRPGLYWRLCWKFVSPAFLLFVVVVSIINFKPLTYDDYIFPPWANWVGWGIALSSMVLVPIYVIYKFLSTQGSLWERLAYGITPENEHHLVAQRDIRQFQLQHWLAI
hSERT, sequence (P31645 whole entry): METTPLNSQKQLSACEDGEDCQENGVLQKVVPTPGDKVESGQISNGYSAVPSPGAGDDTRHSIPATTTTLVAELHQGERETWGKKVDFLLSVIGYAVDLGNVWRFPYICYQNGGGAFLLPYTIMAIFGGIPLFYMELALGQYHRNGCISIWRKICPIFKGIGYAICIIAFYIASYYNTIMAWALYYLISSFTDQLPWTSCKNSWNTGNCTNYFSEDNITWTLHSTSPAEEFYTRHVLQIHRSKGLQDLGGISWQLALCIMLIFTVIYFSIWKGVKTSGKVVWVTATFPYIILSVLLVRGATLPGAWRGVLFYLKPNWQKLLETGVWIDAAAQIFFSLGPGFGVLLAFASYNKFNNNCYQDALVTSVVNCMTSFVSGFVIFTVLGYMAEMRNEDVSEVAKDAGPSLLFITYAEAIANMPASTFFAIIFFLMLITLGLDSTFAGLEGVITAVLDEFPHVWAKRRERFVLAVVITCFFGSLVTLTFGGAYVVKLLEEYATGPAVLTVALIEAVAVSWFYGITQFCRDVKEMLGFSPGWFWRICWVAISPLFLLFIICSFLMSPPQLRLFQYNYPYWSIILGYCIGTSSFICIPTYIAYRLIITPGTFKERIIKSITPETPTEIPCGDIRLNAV

On to `CC(C)C[C@H](Oc1cccc(Cl)c1C(F)(F)F)[C@@H]1CCNC1` [Example 10-37, (R)-3-[(S)-1-(3-Chloro-2-trifluoromethylphenoxy)-3-methylbutyl]pyrrolidine], for which the Ki (in general, a dissociation constant, usually derived from enzyme kinetics or from competition with a known ligand) in test [1] was not above 100 nM; in test [2] it was not above 10 nM.

For `CC(C)C(Oc1cc(Cl)cc(Cl)c1)C1CCNC1` (centres unmarked) [Example 6-67, 3-[1(3,5-Dichlorophenoxy)-2-methylpropyl]pyrrolidine], the inhibition constant Ki in test [1] was not above 100 nM; in test [2] it was not above 10 nM.

Take `Cc1ccc(Cl)c(O[C@@H](C2CC2)[C@H]2CCNC2)c1F` [Example 16-68, (S)-3-[(S)-(6-Chloro-2-fluoro-3-methylphenoxy)cyclopropylmethyl]pyrrolidine]: the Ki in test [1] was not above 10 nM; in test [2], not above 100 nM.

In the case of `Clc1cc(Cl)cc(OC(C2CCCCC2)C2CCNC2)c1` (centres unmarked) [Example 20-6, 3-[Cyclohexyl-(3,5-dichlorophenoxy)methyl]pyrrolidine], the Ki in test [1] and in test [2] was not above 10 nM each time.

Regarding `CSc1ccccc1O[C@@H](C1CC1)[C@H]1CCNC1` [Example 16-5, (S)-3-[(S)cyclopropyl-(2-methylsulfanylphenoxy)methyl]pyrrolidine], the results for the Ki in test [1] and in test [2] were not above 10 nM and not above 100 nM, respectively.

With `Clc1ccc(O[C@@H](C2CC2)[C@H]2CCNC2)c(C2CCCCC2)c1` [Example 16-43, (S)-3-[(S)-(4-Chloro-2-cyclohexylphenoxy)cyclopropylmethyl]pyrrolidine], the Ki is not above 10 nM in test [1] and not above 100 nM in test [2].

In the case of `CC(C)[C@@H](Oc1ccc(Cl)cc1C(F)(F)F)[C@H]1CCNC1` [Example 6-52, (S)-3-[(R)-1-(4-Chloro-2-trifluoromethylphenoxy)-2-methylpropyl]pyrrolidine], the inhibitory constant (Ki) in test [1] and in test [2] was not above 100 nM in each case.

In the case of `CC(C)[C@H](Oc1ccccc1[N+](=O)[O-])[C@H]1CCNC1` [Example 6-53, (S)-3-[(S)-2-Methyl-1-(2-nitrophenoxy)propyl]pyrrolidine], the inhibition constant Ki in test [1] is not above 10 nM; in test [2], not above 100 nM.

Consider `CC[C@@H](Oc1cc(F)cc(F)c1Cl)[C@H]1CCNC1` [Example 2-36, (S)-3-[(R)-1-(2-Chloro-3,5-difluorophenoxy)propyl]pyrrolidine], for which the Ki in test [1] and in test [2] was not above 100 nM each time.

For `CC[C@@H](Oc1c(Cl)ccc(C)c1F)[C@H]1CCNC1` [Example 2-54, (S)-3-[(R)-1-(6-Chloro-2-fluoro-3-methylphenoxy)propyl]pyrrolidine], the Ki in test [1] was not above 10 nM; in test [2], not above 100 nM.

As for `Cc1cc(Cl)ccc1O[C@@H](C1CC1)[C@@H]1CCNC1` [Example 16-31, (R)-3-[(S)-(4-Chloro-2-methylphenoxy)cyclopropylmethyl]pyrrolidine], the inhibition constant Ki is not above 100 nM in test [1] and not above 10 nM in test [2].

As to `Cc1ccc(O[C@H](C2CC2)[C@@H]2CCNC2)c(Br)c1` [Example 16-26, (R)-3-[(R)-(2-Bromo-4-methylphenoxy)cyclopropylmethyl]pyrrolidine], the inhibitory constant (Ki) in test [1] was not above 100 nM; in test [2], not above 10 nM.

On to `Clc1ccc(O[C@@H](C2CC2)[C@H]2CCNC2)c2ccccc12` [Example 23-2, (S)-3-[(S)-(4-Chloronaphthalen-1-yloxy)cyclopropylmethyl]pyrrolidine], for which the inhibition constant Ki was not above 10 nM in test [1] and not above 100 nM in test [2].

As to `CC[C@@H](Oc1c(F)ccc(Cl)c1F)[C@H]1CCNC1` [Example 2-53, (S)-3-[(R)-1-(3-Chloro-2,6-difluorophenoxy)propyl]pyrrolidine], the Ki in test [1] was not above 10 nM; in test [2], not above 100 nM.

Regarding `CCCC[C@@H](Oc1cccc(Cl)c1Cl)[C@H]1CCNC1` [Example 8-6, (S)-3-[(R)-1-(2,3-Dichlorophenoxy)pentyl]pyrrolidine], the inhibition constant (Ki) in test [1] and in test [2] was not above 10 nM in each case.

As to `CC(C)C[C@@H](Oc1ccc(Cl)cc1)[C@@H]1CCNC1` [Example 10-14, (R)-3-[(R)-1-(4-Chlorophenoxy)-3-methylbutyl]pyrrolidine], the Ki in test [1] is not above 100 nM; in test [2], not above 10 nM.

In the case of `CCC[C@H](Oc1cccc(Cl)c1C)[C@@H]1CCNC1` [Example 4-56, (R)-3-[(S)-1-(3-Chloro-2-methylphenoxy)butyl]pyrrolidine], the inhibitory constant (Ki) is not above 100 nM in test [1] and not above 10 nM in test [2].

As to `Fc1cc(O[C@H](C2CC2)[C@@H]2CCNC2)ccc1Cl` [Example 16-92, (R)-3-[(R)-(4-Chloro-3-fluorophenoxy)cyclopropylmethyl]pyrrolidine], the inhibitory constant (Ki) in test [1] is not above 100 nM; in test [2], not above 10 nM.

As for `Clc1cc(Cl)c(O[C@@H](C2CC2)[C@H]2CCNC2)cc1Cl` [Example 16-71, (S)-3-[(S)cyclopropyl-(2,4,5-trichlorophenoxy)methyl]pyrrolidine], the inhibitory constant (Ki) is not above 100 nM in test [1] and not above 10 nM in test [2].

With `CCCC[C@@H](Oc1ccc(C)cc1Cl)[C@H]1CCNC1` [Example 8-9, (S)-3-[(R)-1-(2-Chloro-4-methylphenoxy)pentyl]pyrrolidine], the Ki is not above 100 nM in test [1] and not above 10 nM in test [2].

In the case of `CC(C)[C@@H](Oc1ccc(Cl)cc1)[C@H]1CCNC1` [Example 6-76, (S)-3-[(R)-1-(4-Chlorophenoxy)-2-methylpropyl]pyrrolidine], the results for the inhibition constant Ki in test [1] and in test [2] were not above 100 nM and not above 10 nM, respectively.

Take `Cc1cc(Cl)ccc1O[C@H](C1CC1)[C@H]1CCNC1` [Example 16-30, (S)-3-[(R)-(4-Chloro-2-methylphenoxy)cyclopropylmethyl]pyrrolidine]: the Ki in test [1] is not above 100 nM; in test [2] it was not above 10 nM.

On to `CC(C)C[C@@H](Oc1ccc(C(F)(F)F)cc1)[C@H]1CCNC1` [Example 10-17, (S)-3-[(R)-3-Methyl-1-(4-trifluoromethylphenoxy)butyl]pyrrolidine], for which the inhibitory constant (Ki) in test [1] is not above 100 nM; in test [2] it was not above 10 nM.

In the case of `Fc1cc(Cl)cc(Cl)c1O[C@@H](C1CC1)[C@H]1CCNC1` [Example 16-75, (S)-3-[(S)cyclopropyl-(2,4-dichloro-6-fluorophenoxy)methyl]pyrrolidine], the inhibition constant Ki in test [1] and in test [2] was not above 10 nM each time.

As to `CC[C@H](Oc1ccc(F)cc1)[C@H]1CCNC1` [Example 2-12, (S)-3-[(S)-1-(4-Fluorophenoxy)propyl]pyrrolidine], the inhibition constant (Ki) in test [1] and in test [2] was not above 100 nM in each case.

As for `Cc1ccc(O[C@H](C2CC2)[C@@H]2CCNC2)c(C)c1` [Example 16-27, (R)-3-[(R)cyclopropyl-(2,4-dimethylphenoxy)-methyl]pyrrolidine], the Ki in test [1] was not above 100 nM; in test [2] it was not above 10 nM.

In the case of `CC[C@H](Oc1ccc(F)c(F)c1F)[C@H]1CCNC1` [Example 2-50, (S)-3-[(S)-1-(2,3,4-Trifluorophenoxy)propyl]pyrrolidine], the inhibition constant Ki in test [1] was not above 100 nM; in test [2] it was not above 10 nM.

Turning to `CC(C)[C@H](Oc1ccccc1F)[C@H]1CCNC1` [Example 6-1, (S)-3-[(S)-1-(2-Fluorophenoxy)-2-methylpropyl]pyrrolidine], the Ki in test [1] was not above 10 nM; in test [2], not above 100 nM.

With `CCC[C@H](Oc1cccc(Cl)c1C(F)(F)F)[C@H]1CCNC1` [Example 4-68, (S)-3-[(S)-1-(3-Chloro-2-trifluoromethylphenoxy)butyl]pyrrolidine], the Ki in test [1] and in test [2] was not above 10 nM each time.

For `CCCC[C@@H](Oc1ccc(Cl)cc1C)[C@H]1CCNC1` [Example 8-10, (S)-3-[(R)-1-(4-Chloro-2-methylphenoxy)pentyl]pyrrolidine], the inhibition constant (Ki) in test [1] and in test [2] was not above 10 nM in each case.

For the compound `CC[C@@H](Oc1c(F)cccc1Cl)[C@H]1CCNC1` [Example 2-26, (S)-3-[(R)-1-(2-Chloro-6-fluorophenoxy)propyl]pyrrolidine], the Ki in test [1] is not above 10 nM; in test [2] it was not above 100 nM.

Regarding `CCC[C@@H](Oc1c(Cl)cccc1Cl)[C@@H]1CCNC1` [Example 4-36, (R)-3-[(R)-1-(2,6-Dichlorophenoxy)butyl]pyrrolidine], the Ki in test [1] and in test [2] was not above 100 nM in each case.

Take `CC[C@@H](Oc1ccccc1C)[C@H]1CCNC1` [Example 2-63, (S)-3-((R)-1-o-Tolyloxypropyl)pyrrolidine]: the Ki in test [1] and in test [2] was not above 100 nM each time.

For `CC[C@@H](Oc1ccc(Cl)cc1Cl)[C@@H]1CCNC1` [Example 2-33, (R)-3-[(R)-1-(2,4-Dichlorophenoxy)propyl]pyrrolidine], the inhibition constant (Ki) was not above 100 nM in test [1] and not above 10 nM in test [2].

For the compound `CC[C@H](Oc1cccc(Cl)c1Cl)[C@@H]1CCNC1` [Example 2-30, (R)-3-[(S)-1-(2,3-Dichlorophenoxy)propyl]pyrrolidine], the Ki in test [1] is not above 100 nM; in test [2], not above 10 nM.

Turning to `CC(C)CC(Oc1ccccc1F)C1CCNC1` (centres unmarked) [Example 10-2, 3-[1-(2-Fluorophenoxy)-3-methylbutyl]pyrrolidine], the values for the inhibitory constant (Ki) in test [1] and in test [2] were not above 10 nM and not above 100 nM, respectively.

Regarding `CCCC[C@@H](Oc1cccc(Cl)c1C)[C@H]1CCNC1` [Example 8-7, (S)-3-[(R)-1-(3-Chloro-2-methylphenoxy)pentyl]pyrrolidine], the inhibition constant (Ki) in test [1] and in test [2] was not above 10 nM in each case.

As for `COc1ccccc1OC(C1CCCCC1)C1CCNC1` (centres unmarked) [Example 20-2, 3-[Cyclohexyl-(2-methoxyphenoxy)methyl]pyrrolidine], the Ki in test [1] and in test [2] was not above 100 nM each time.

Regarding `CC(C)[C@@H](Oc1ccc(Cl)cc1Cl)[C@H]1CCNC1` [Example 6-22, (S)-3-[(R)-1-(2,4-Dichlorophenoxy)-2-methylpropyl]pyrrolidine], the inhibition constant Ki in test [1] is not above 100 nM; in test [2], not above 10 nM.

`CC[C@H](Oc1cccc(C(F)(F)F)c1)[C@H]1CCNC1` [Example 2-16, (S)-3-[(S)-1-(3-Trifluoromethylphenoxy)propyl]pyrrolidine]: the results for the Ki in test [1] and in test [2] were not above 100 nM and not above 10 nM, respectively.
